Measured values reported in patent US20090023807A1, “Treatment of Cytokine Dysregulation by Using Sn-2 Gamma-Linolenoyl, Gamma-Diho-Molinolenoyl or Arachidonoyl Patty Acid Glycerol Monoesters” (BTG International Limited, priority 2005, published 2009).

Key:
[1] = Precipitation of the solubilised sn-2 monoglyceride; format: physicochemical; conditions: acid pH
[2] = Storage stability and rearrangement of the monoglyceride; format: physicochemical
Description: This exemplifies its potential for inclusion in air excluding formats such as capsules or e.g. collapsible bag containers which allow egress of oil without entry of air. A high purity process for its synthesis has also been published in Yang et al, Journal of the Chinese Institute of Chemical Engineers, 34, 617-623 (2003). These processes lend themselves to synthesis of n-3 and n-6 sn-2 monoglycerides by replacing the arachdonoyl or γ-linolenoyl source with the desired acyl group containing molecule.
Boric acid (2.81) g, 0.045 mol, 4 equivalents) was added to a freshly prepared solution of 1,3-O-benzylidene glycerol 2-octa-6Z,9Z,12Z-trienoate (5.0 g, 0.011 mol, 1 equivalent) in trimethyl borate (28 ml, 26.0 g, 0.25 mol, 22 equivalents) under N2. The mixture was stirred and heated in a sealed Teflon bomb at 90° C. for 15 minutes. The resulting cool solution was concentrated in vacuo and the residue heated at 90° C. under vacuum for 5 minutes. […] This process was repeated on the same scale twice more and the combined residues were dissolved in ether (150 ml) and washed with water (2×50 ml). The ether extract (not dried as MgSO4 promotes rearrangement) was concentrated in vacuo, ethanol added to the residue and the solution re-evaporated with ethanol (2×) to remove water. The residual tan oil (15.0 g) was purified by column chromatography on solica gel-boric acid (10:1) (10 g). Elution with DCM and then DCM-methanol (9:1) gave the product as a yellow oil (11.7 g, 73%) HPLC purity 93.4%. This material was stored in a freezer at −20° C. under N2.

[3] = Tolerability of gavage feeding; format: in vivo, SJL mice; conditions: higher doses (of 50, 125 and 250 μl), seven days
TNF-α = conditions: cited from earlier work
TGF-β1 = TGF-β1 production from spleen mononuclear cells of mice fed the monoglyceride by gavage (ELISA); format: in vivo, SJL mice; conditions: fed 50 μg; for TGF-β1 production from spleen PBMCs: seven days by gavage
Description: After seven days animals were killed and the brain, liver and spleen were removed—the liver and brain frozen at −70° C. and mononuclear cells were isolated from spleens by sieving and density centrifugation on Lymphoprep (Sigma Chemical Co) and cultured at 37° C. in 5% CO2 atmosphere in 5 ml culture tubesat a cell density of 1×10^6 cells/ml in RPMI 1640 medium in 5% foetal calf serum (FCS). Cells were cultured with and without 1 μg/ml or 25 μg/ml concanavalin A (Con A) for approximately 20 hours and the supernatants removed and stored at −70° C. until required. Mouse TGF-β1 was measured in supernatants using a commercially available ELISA (Promega, Madison Wis.).

CREAE = CREAE feeding study; format: in vivo
Description: γ-Linolenic acid (18:3 n-6, or GLA) is known to be rapidly converted to longer-chain omega-6 polyunsaturated fatty acids dihomo-γ-linolenic acid and arachidonic acid in vivo (Phylactos et al 1994, Harbige et al 1995, 2000). Therefore to determine how to increase the level of membrane long chain omega-6 fatty acids in MS the inventors have reviewed their results obtained with several GLA-containing oils:-both fungal (from Mucor javanicus) and plant (Borago officianalis), Evening primrose Oenothera spp. or Blackcurrant Ribes spp) as well as a synthetic tri-GLA oil as GLA delivery systems in an in vivo experimental animal model of MS known as chronic relapsing experimental autoimmune encephalomyelitis (CREAE). […] Importantly blackcurrant seed oil has a low sn-2 GLA with most of the GLA in the sn-1 and sn-3 positions (Lawson and Hughes 1988). […] This would also be consistent with the sn-2 GLA being important i.e. the outer pair sn-1 and sn-3 GLA being enzymatically removed in vivo and probably undergoing oxidation leaving the sn-2 GLA only. This selective hydrolysis arises from the known ability of specific lipases to remove the sn-1 and sn-3 fatty acids from triacylgycerol molecules but an apparent protection of the sn-2 position in vivo (Lawson and Hughes 1988, Kyle 1990).

For `CCCCC/C=C\C/C=C\C/C=C\CCCCC(=O)OC(CO)CO` [Example 1b, glycerol 2-octa-6Z,9Z,12Z-trienoate], the Precipitation [1] was “tendency to precipitate”, the Deterioration on storage ([2]; freezer at −20° C. under N2, 21 days) was “Little if any deterioration” and the “Rearrangement to the 1-γ-Linolenoyl glycerol isomer” value ([2]; when heated or treated with acids or bases) was “can undergo rearrangement”. The Deterioration on storage ([2]; yellow oil, −20° C. under nitrogen, several weeks at least) was “without deterioration”, the Regurgitation after gavage [3] was “prone to regurgitation” and the “Activity in reducing TNF-α” value (TNF-α) was “inactive”. For the same molecule, the “Change % of TGF-β1 production versus control” value (from here on “Change %”) (TGF-β1; Con A 0 μg/ml) was 80%, the “Change %” value (TGF-β1; Con A 1 μg/ml) was 79% and the “Change %” value (TGF-β1; Con A 25 μg/ml) was 42%. The “TGF-β1 production from spleen PBMCs” value (TGF-β1; stimulated, Con A 1 μg/ml) was 409 pg/mL, the “TGF-β1 production from spleen PBMCs” value (TGF-β1; stimulated, Con A 25 μg/ml) was 480 pg/mL and the “TGF-β1 production from spleen PBMCs” value (TGF-β1; unstimulated, Con A 0 μg/ml) was 377 pg/mL.

With `CCCCC/C=C\C/C=C\C/C=C\CCCCC(=O)OCC(COC(=O)CCCC/C=C\C/C=C\C/C=C\CCCCC)OC(=O)CCCC/C=C\C/C=C\C/C=C\CCCCC` [TG-GLA] the “Protective effects in CREAE” value (CREAE) was “protective effects similar to that of the borage oil”.
